Reference: patent publication US20260049088A1, “TRICYCLIC HETEROCYCLIC DERIVATIVES, COMPOSITIONS AND USES THEREOF” (Danatlas Pharmaceuticals Co., Ltd., priority 2023, published 2026)

Target: T1, hPARG (Homo sapiens, UniProt Q86W56)
T1 construct: made in house; host or cells: E. coli
Assay: PARG enzymatic activity assay (HTRF)
Type: biochemical
Settings: C-terminal His6-tag hPARG 65 pM, biotinylated-NAD ribosylated PARP1 substrate 8 nM
Procedure: HTRF assay was used to measure the ability of compounds to inhibit the activity of […] in vitro. C-terminal His6—tag PARG expressed in E. coli was purified and stored at −80° C. in aliquots. Assay measurements were performed with 1×buffer comprising 50 mM Tris pH 7.4, 0.1 mg/mL BSA, 3 mM EDTA, 0.4 mM EGTA, 1 mM DTT, 50 mM KCl and 0.01% Tween 20. Compounds dissolved in DMSO were plated into a 384-well assay plate (PerkinElmer, Catalog #: 6008280) in duplicate using a dispenser (Labcyte, Echo 665), and tested on a 10-point 4-fold serial dilution. Add 5 μL Enzyme mix [hPARG (C-terminal His6—tag, 4.2 μM), 65 pM final] to the test wells. The plates were covered and left to incubate for 60 minutes at RT before the addition of 5 μL substrate mix [biotinylated-NAD ribosylated PARP1 (6.1 μM), 8 nM final] to initiate reaction. After incubating 10 minutes at RT, add 2.5 μL Streptavidin-Eu cryptate (Cisbio, Catalog #: 610SAKLA) and 2.5 μL Mab anti 6HIS-XL665 (Cisbio, Catalog #: 61HISXLA) to the plate, and incubate for 60 minutes at RT. Read on a multimode plate reader (PerkinElmer, Envision 2015) in time-resolved fluorescence (TRF) mode, with excitation at 337 nm and emission at both 620 nm and 665 nm. Average HTRF signal of high control (Wells with 1% DMSO) was calculated and as Vehicle Control (VC). Average HTRF signal of low control (no Enzyme) was calculated and as Positive control (PC).
IC50 values were determined by fitting the data to the standard 4 parameters with Hill Slope using GraphPad Prism software.

T1 sequence (Q86W56 whole entry): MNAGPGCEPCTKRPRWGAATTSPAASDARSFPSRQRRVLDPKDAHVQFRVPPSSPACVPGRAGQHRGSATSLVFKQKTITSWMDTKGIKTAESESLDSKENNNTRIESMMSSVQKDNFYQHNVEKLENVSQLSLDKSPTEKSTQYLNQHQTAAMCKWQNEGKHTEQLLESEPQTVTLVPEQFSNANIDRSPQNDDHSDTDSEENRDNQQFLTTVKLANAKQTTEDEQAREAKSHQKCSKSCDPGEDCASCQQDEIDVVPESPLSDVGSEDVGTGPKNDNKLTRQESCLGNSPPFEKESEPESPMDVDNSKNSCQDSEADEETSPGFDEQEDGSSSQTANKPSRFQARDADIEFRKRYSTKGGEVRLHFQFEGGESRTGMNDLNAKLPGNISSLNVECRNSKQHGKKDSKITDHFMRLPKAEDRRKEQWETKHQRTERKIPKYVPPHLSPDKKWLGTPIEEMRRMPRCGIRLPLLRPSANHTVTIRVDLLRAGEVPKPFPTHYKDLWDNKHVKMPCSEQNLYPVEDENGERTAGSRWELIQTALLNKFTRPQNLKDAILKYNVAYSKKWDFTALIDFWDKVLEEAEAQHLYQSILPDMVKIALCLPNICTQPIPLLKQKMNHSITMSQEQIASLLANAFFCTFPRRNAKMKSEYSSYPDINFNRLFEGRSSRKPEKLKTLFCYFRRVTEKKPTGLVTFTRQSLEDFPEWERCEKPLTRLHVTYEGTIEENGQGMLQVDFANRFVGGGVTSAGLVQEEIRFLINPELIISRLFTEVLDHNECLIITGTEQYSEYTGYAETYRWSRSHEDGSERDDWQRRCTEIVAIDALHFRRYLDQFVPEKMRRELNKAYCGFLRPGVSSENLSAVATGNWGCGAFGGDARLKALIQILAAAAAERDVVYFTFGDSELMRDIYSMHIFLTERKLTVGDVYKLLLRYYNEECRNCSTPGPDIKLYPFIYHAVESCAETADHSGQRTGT

IC50 [nM]	Structure (SMILES)
≤ 100	N#CC1(NS(=O)(=O)c2ccc3c4c(N5CCn6cncc6C5)ncnc4n(-c4nnc(C(F)F)s4)c3c2)CC1 [Example 45, N-(1-Cyanocyclopropyl)-9-(5-(difluoromethyl)-1,3,4-thiadiazol-2-yl)-4-(5,6-dihydroimidazo[1,5-a]pyrazin-7(8H)-yl)-9H-pyrimido[4,5-b]indole-7-sulfonamide]
≤ 100	N#CC1(NS(=O)(=O)c2ccc3c4c(N5CCn6cnnc6C5)ncnc4n(-c4nnc(C(F)F)s4)c3c2)CC1 [Example 46, N-(1-Cyanocyclopropyl)-9-(5-(difluoromethyl)-1,3,4-thiadiazol-2-yl)-4-(5,6-dihydro-[1,2,4]triazolo[4,3-a]pyrazin-7(8H)-yl)-9H-pyrimido[4,5-b]indole-7-sulfonamide]
≤ 100	Cc1nnc2n1CCN(c1ncnc3c1c1ccc(S(=O)(=O)NC4(C#N)CC4)cc1n3-c1nnc(C(F)F)s1)C2 [Example 47, N-(1-Cyanocyclopropyl)-9-(5-(difluoromethyl)-1,3,4-thiadiazol-2-yl)-4-(3-methyl-5,6-dihydro-[1,2,4]triazolo[4,3-a]pyrazin-7(8H)-yl)-9H-pyrimido[4,5-b]indole-7-sulfonamide]
≤ 100	CN1CCN(c2ncnc3c2c2ccc(S(=O)(=O)NC4(C#N)CC4)cc2n3-c2nnc(C(F)F)s2)CC12CC2 [Example 48, N-(1-Cyanocyclopropyl)-9-(5-(difluoromethyl)-1,3,4-thiadiazol-2-yl)-4-(4-methyl-4,7-diazaspiro[2.5]octan-7-yl)-9H-pyrimido[4,5-b]indole-7-sulfonamide]
≤ 100	N#CC1(NS(=O)(=O)c2ccc3c4c(N5CCn6ncnc6C5)ncnc4n(-c4nnc(C(F)F)s4)c3c2)CC1 [Example 49, N-(1-Cyanocyclopropyl)-9-(5-(difluoromethyl)-1,3,4-thiadiazol-2-yl)-4-(5,6-dihydro-[1,2,4]triazolo[1,5-a]pyrazin-7(8H)-yl)-9H-pyrimido[4,5-b]indole-7-sulfonamide]
≤ 100	CCN(CC)[C@@H]1CCN(c2ncnc3c2c2ccc(S(=O)(=O)NC4(C#N)CC4)cc2n3-c2nnc(C(F)F)s2)C[C@@H]1OC [Example 50, N-(1-Cyanocyclopropyl)-4-((3S,4R)-4-(diethylamino)-3-methoxypiperidin-1-yl)-9-(5-(difluoromethyl)-1,3,4-thiadiazol-2-yl)-9H-pyrimido[4,5-b]indole-7-sulfonamide]
≤ 100	CCN(CC)[C@@H]1CCN(c2ncnc3c2c2ccc(S(=O)(=O)NC4(C#N)CC4)cc2n3-c2nnc(C(F)F)s2)CC1(F)F [Example 51, (R)-N-(1-Cyanocyclopropyl)-4-(4-(diethylamino)-3,3-difluoropiperidin-1-yl)-9-(5-(difluoromethyl)-1,3,4-thiadiazol-2-yl)-9H-pyrimido[4,5-b]indole-7-sulfonamide]
≤ 100	CCN1CCCC12CCN(c1ncnc3c1c1ccc(S(=O)(=O)NC4(C#N)CC4)cc1n3-c1nnc(C(F)F)s1)CC2 [Example 52, N-(1-Cyanocyclopropyl)-9-(5-(difluoromethyl)-1,3,4-thiadiazol-2-yl)-4-(1-ethyl-1,8-diazaspiro[4.5]decan-8-yl)-9H-pyrimido[4,5-b]indole-7-sulfonamide]
≤ 100	Cc1cnc2n1CCN(c1ncnc3c1c1ccc(S(=O)(=O)NC4(C#N)CC4)cc1n3-c1nnc(C(F)F)s1)C2 [Example 53, N-(1-Cyanocyclopropyl)-9-(5-(difluoromethyl)-1,3,4-thiadiazol-2-yl)-4-(3-methyl-5,6-dihydroimidazo[1,2-a]pyrazin-7(8H)-yl)-9H-pyrimido[4,5-b]indole-7-sulfonamide]
≤ 100	CCc1cnc2n1CCN(c1ncnc3c1c1ccc(S(=O)(=O)NC4(C#N)CC4)cc1n3-c1nnc(C(F)F)s1)C2 [Example 54, N-(1-Cyanocyclopropyl)-9-(5-(difluoromethyl)-1,3,4-thiadiazol-2-yl)-4-(3-ethyl-5,6-dihydroimidazo[1,2-a]pyrazin-7(8H)-yl)-9H-pyrimido[4,5-b]indole-7-sulfonamide]
≤ 100	Cc1nc2n(n1)CCN(c1ncnc3c1c1ccc(S(=O)(=O)NC4(C#N)CC4)cc1n3-c1nnc(C(F)F)s1)C2 [Example 55, N-(1-Cyanocyclopropyl)-9-(5-(difluoromethyl)-1,3,4-thiadiazol-2-yl)-4-(2-methyl-5,6-dihydro-[1,2,4]triazolo[1,5-a]pyrazin-7(8H)-yl)-9H-pyrimido[4,5-b]indole-7-sulfonamide]
≤ 100	CN(C[C@@H]1CCOC1)c1ncnc2c1c1ccc(S(=O)(=O)NC3(C#N)CC3)cc1n2-c1nnc(C(F)F)s1 [Example 56, (S)-N-(1-Cyanocyclopropyl)-9-(5-(difluoromethyl)-1,3,4-thiadiazol-2-yl)-4-(methyl((tetrahydrofuran-3-yl)methyl)amino)-9H-pyrimido[4,5-b]indole-7-sulfonamide]
≤ 100	CN(C[C@H]1CCOC1)c1ncnc2c1c1ccc(S(=O)(=O)NC3(C#N)CC3)cc1n2-c1nnc(C(F)F)s1 [Example 57, (R)-N-(1-Cyanocyclopropyl)-9-(5-(difluoromethyl)-1,3,4-thiadiazol-2-yl)-4-(methyl((tetrahydrofuran-3-yl)methyl)amino)-9H-pyrimido[4,5-b]indole-7-sulfonamide]
100 to 1000	CN(c1ncnc2c1c1ccc(S(=O)(=O)NC3(C#N)CC3)cc1n2-c1nnc(C(F)F)s1)C1COC1 [Example 58, N-(1-Cyanocyclopropyl)-9-(5-(difluoromethyl)-1,3,4-thiadiazol-2-yl)-4-(methyl(oxetan-3-yl)amino)-9H-pyrimido[4,5-b]indole-7-sulfonamide]
100 to 1000	CN(CCn1ccnc1)c1ncnc2c1c1ccc(S(=O)(=O)NC3(C#N)CC3)cc1n2-c1nnc(C(F)F)s1 [Example 59, 4-((2-(1H-Imidazol-1-yl)ethyl)(methyl)amino)-N-(1-cyanocyclopropyl)-9-(5-(difluoromethyl)-1,3,4-thiadiazol-2-yl)-9H-pyrimido[4,5-b]indole-7-sulfonamide]
≤ 100	CN1CCN(CCN(C)c2ncnc3c2c2ccc(S(=O)(=O)NC4(C#N)CC4)cc2n3-c2nnc(C(F)F)s2)C1=O [Example 60, N-(1-Cyanocyclopropyl)-9-(5-(difluoromethyl)-1,3,4-thiadiazol-2-yl)-4-(methyl(2-(3-methyl-2-oxoimidazolidin-1-yl)ethyl)amino)-9H-pyrimido[4,5-b]indole-7-sulfonamide]
100 to 1000	CN(CCN1CCCC1=O)c1ncnc2c1c1ccc(S(=O)(=O)NC3(C#N)CC3)cc1n2-c1nnc(C(F)F)s1 [Example 61, N-(1-Cyanocyclopropyl)-9-(5-(difluoromethyl)-1,3,4-thiadiazol-2-yl)-4-(methyl(2-(2-oxopyrrolidin-1-yl)ethyl)amino)-9H-pyrimido[4,5-b]indole-7-sulfonamide]
≤ 100	CN(C)CCN(C)c1ncnc2c1c1ccc(S(=O)(=O)NC3(C#N)CC3)cc1n2-c1nnc(C(F)F)s1 [Example 62, N-(1-Cyanocyclopropyl)-9-(5-(difluoromethyl)-1,3,4-thiadiazol-2-yl)-4-((2-(dimethylamino)ethyl)(methyl)amino)-9H-pyrimido[4,5-b]indole-7-sulfonamide]
≤ 100	CN(CCO)c1ncnc2c1c1ccc(S(=O)(=O)NC3(C#N)CC3)cc1n2-c1nnc(C(F)F)s1 [Example 63, N-(1-Cyanocyclopropyl)-9-(5-(difluoromethyl)-1,3,4-thiadiazol-2-yl)-4-((2-hydroxyethyl)(methyl)amino)-9H-pyrimido[4,5-b]indole-7-sulfonamide]
≤ 100	CN(CC1COCCN1C)c1ncnc2c1c1ccc(S(=O)(=O)NC3(C#N)CC3)cc1n2-c1nnc(C(F)F)s1 (centres unmarked) [Example 64, N-(1-Cyanocyclopropyl)-9-(5-(difluoromethyl)-1,3,4-thiadiazol-2-yl)-4-(methyl((4-methylmorpholin-3-yl)methyl)amino)-9H-pyrimido[4,5-b]indole-7-sulfonamide]
≤ 100	CN(C[C@@H]1COCCN1C)c1ncnc2c1c1ccc(S(=O)(=O)NC3(C#N)CC3)cc1n2-c1nnc(C(F)F)s1 [Example 65, (R)-N-(1-Cyanocyclopropyl)-9-(5-(difluoromethyl)-1,3,4-thiadiazol-2-yl)-4-(methyl((4-methylmorpholin-3-yl)methyl)amino)-9H-pyrimido[4,5-b]indole-7-sulfonamide]
≤ 100	CN(C[C@H]1COCCN1C)c1ncnc2c1c1ccc(S(=O)(=O)NC3(C#N)CC3)cc1n2-c1nnc(C(F)F)s1 [Example 66, (S)-N-(1-Cyanocyclopropyl)-9-(5-(difluoromethyl)-1,3,4-thiadiazol-2-yl)-4-(methyl((4-methylmorpholin-3-yl)methyl)amino)-9H-pyrimido[4,5-b]indole-7-sulfonamide]
≤ 100	CN(CC1CCCOC1)c1ncnc2c1c1ccc(S(=O)(=O)NC3(C#N)CC3)cc1n2-c1nnc(C(F)F)s1 (centres unmarked) [Example 68, N-(1-Cyanocyclopropyl)-9-(5-(difluoromethyl)-1,3,4-thiadiazol-2-yl)-4-(methyl((tetrahydro-2H-pyran-3-yl)methyl)amino)-9H-pyrimido[4,5-b]indole-7-sulfonamide]
